Data as given in ChEMBL document CHEMBL4011630 (J Med Chem, 2017).
Where a SMILES comes first, the peptide text is derived from it. Bridges are numbered along the chain shown (N, C = ends). [ ]: non-standard residue; d: D form. hMet = CSCCC[C@H](N)C(=O)O

Experiments:
Rattus norvegicus [1] = organism: Rattus norvegicus; test: Selectivity ratio of IC50 for rat alpha6/alpha3beta4 nACHR expressed in xenopous laevis oocyte at -80 mV holding potential to IC50 for rat alpha3beta4 nACHR expressed in xenopous laevis oocyte at -80 mV holding potential
[2] = biological target: T1, Neuronal acetylcholine receptor; alpha3/beta4 (Rattus norvegicus, UniProt P04757+P12392); test: Antagonist activity at rat alpha3beta4 nACHR expressed in xenopous laevis oocyte assessed as inhibition of ACh induced channel current at -80 mV holding potential by two electrode voltage clamp method
[3] = biological target: T2, Nicotinic acetylcholine receptor alpha6/alpha3/beta4 (Rattus norvegicus, UniProt P04757+P12392+P43143); test: Antagonist activity at rat alpha6/alpha3beta4 nACHR expressed in xenopous laevis oocyte assessed as inhibition of ACh induced channel current at -80 mV holding potential by two electrode voltage clamp method
Rattus norvegicus [4] = organism: Rattus norvegicus; test: Selectivity ratio of IC50 for rat alpha6/alpha3beta4 nACHR expressed in xenopous laevis oocyte at -70 mV holding potential to IC50 for rat alpha3beta4 nACHR expressed in xenopous laevis oocyte at -70 mV holding potential
[5] = biological target: T2, Nicotinic acetylcholine receptor alpha6/alpha3/beta4; test: Antagonist activity at rat alpha6/alpha3beta4 nACHR expressed in xenopous laevis oocyte assessed as inhibition of ACh induced channel current at -70 mV holding potential by two electrode voltage clamp method
[6] = biological target: T1, Neuronal acetylcholine receptor; alpha3/beta4; test: Antagonist activity at rat alpha3beta4 nACHR expressed in xenopous laevis oocyte assessed as inhibition of ACh induced channel current at -70 mV holding potential by two electrode voltage clamp method
[7] = biological target: T1, Neuronal acetylcholine receptor; alpha3/beta4; test: Antagonist activity at rat alpha3beta4 nACHR expressed in xenopous laevis oocyte assessed as inhibition of ACh induced channel current after 5 mins at -70 mV holding potential by two electrode voltage clamp method
[8] = biological target: T2, Nicotinic acetylcholine receptor alpha6/alpha3/beta4; test: Antagonist activity at rat alpha6/alpha3beta4 nACHR expressed in xenopous laevis oocyte assessed as inhibition of ACh induced channel current after 5 mins at -70 mV holding potential by two electrode voltage clamp method
[9] = biological target: Neuronal acetylcholine receptor; alpha2/beta2 (Rattus norvegicus, UniProt P12389+P12390); test: Antagonist activity at rat alpha2beta2 nACHR expressed in xenopous laevis oocyte assessed as inhibition of ACh induced channel current after 5 mins at -70 mV holding potential by two electrode voltage clamp method
[10] = biological target: Neuronal acetylcholine receptor; alpha3/beta2 (Rattus norvegicus, UniProt P04757+P12390); test: Antagonist activity at rat alpha3beta2 nACHR expressed in xenopous laevis oocyte assessed as inhibition of ACh induced channel current after 5 mins at -70 mV holding potential by two electrode voltage clamp method
[11] = biological target: Neuronal acetylcholine receptor; alpha4/beta2 (Rattus norvegicus, UniProt P09483+P12390); test: Antagonist activity at rat alpha4beta2 nACHR expressed in xenopous laevis oocyte assessed as inhibition of ACh induced channel current after 5 mins at -70 mV holding potential by two electrode voltage clamp method
[12] = biological target: Neuronal acetylcholine receptor subunit alpha-7 (Rattus norvegicus, UniProt Q05941); test: Antagonist activity at rat alpha7 nACHR expressed in xenopous laevis oocyte assessed as inhibition of ACh induced channel current after 5 mins at -70 mV holding potential by two electrode voltage clamp method
[13] = biological target: Neuronal acetylcholine receptor; alpha2/beta4 (Rattus norvegicus, UniProt P12389+P12392); test: Antagonist activity at rat alpha2beta4 nACHR expressed in xenopous laevis oocyte assessed as inhibition of ACh induced channel current after 5 mins at -70 mV holding potential by two electrode voltage clamp method
[14] = biological target: Neuronal acetylcholine receptor; alpha4/beta4 (Rattus norvegicus, UniProt P09483+P12392); test: Antagonist activity at rat alpha4beta4 nACHR expressed in xenopous laevis oocyte assessed as inhibition of ACh induced channel current after 5 mins at -70 mV holding potential by two electrode voltage clamp method
[15] = biological target: Nicotinic acetylcholine receptor alpha9/alpha10 (Rattus norvegicus, UniProt P43144+Q9JLB5); test: Antagonist activity at rat alpha9alpha10 nACHR expressed in xenopous laevis oocyte assessed as inhibition of ACh induced channel current after 5 mins at -70 mV holding potential by two electrode voltage clamp method
Chain of Nicotinic acetylcholine receptor alpha9/alpha10 (P43144 whole entry): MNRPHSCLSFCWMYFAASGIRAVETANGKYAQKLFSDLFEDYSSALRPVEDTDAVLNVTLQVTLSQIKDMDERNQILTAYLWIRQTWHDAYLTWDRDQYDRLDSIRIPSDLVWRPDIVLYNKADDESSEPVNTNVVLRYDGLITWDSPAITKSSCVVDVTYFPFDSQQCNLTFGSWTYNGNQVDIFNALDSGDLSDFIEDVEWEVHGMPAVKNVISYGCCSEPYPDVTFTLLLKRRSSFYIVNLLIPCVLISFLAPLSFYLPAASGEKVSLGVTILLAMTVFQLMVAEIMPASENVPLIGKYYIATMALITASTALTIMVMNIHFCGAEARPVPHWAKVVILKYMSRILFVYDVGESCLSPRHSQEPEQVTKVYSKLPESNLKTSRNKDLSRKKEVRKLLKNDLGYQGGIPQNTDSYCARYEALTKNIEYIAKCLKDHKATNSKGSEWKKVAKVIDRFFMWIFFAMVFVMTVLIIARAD
Chain of Nicotinic acetylcholine receptor alpha9/alpha10 (Q9JLB5 whole entry): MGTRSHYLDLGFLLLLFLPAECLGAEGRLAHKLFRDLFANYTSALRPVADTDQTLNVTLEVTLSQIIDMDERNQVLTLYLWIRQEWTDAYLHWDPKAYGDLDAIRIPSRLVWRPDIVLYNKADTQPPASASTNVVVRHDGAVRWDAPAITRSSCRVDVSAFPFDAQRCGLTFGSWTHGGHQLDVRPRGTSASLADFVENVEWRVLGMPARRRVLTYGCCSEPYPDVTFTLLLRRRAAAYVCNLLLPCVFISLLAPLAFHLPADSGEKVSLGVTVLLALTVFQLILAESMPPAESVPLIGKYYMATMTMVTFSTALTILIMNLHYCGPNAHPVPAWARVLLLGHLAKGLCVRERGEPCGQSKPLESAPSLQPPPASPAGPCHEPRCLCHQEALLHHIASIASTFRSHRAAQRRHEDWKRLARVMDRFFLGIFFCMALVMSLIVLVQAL

T2 sequence (P04757 whole entry): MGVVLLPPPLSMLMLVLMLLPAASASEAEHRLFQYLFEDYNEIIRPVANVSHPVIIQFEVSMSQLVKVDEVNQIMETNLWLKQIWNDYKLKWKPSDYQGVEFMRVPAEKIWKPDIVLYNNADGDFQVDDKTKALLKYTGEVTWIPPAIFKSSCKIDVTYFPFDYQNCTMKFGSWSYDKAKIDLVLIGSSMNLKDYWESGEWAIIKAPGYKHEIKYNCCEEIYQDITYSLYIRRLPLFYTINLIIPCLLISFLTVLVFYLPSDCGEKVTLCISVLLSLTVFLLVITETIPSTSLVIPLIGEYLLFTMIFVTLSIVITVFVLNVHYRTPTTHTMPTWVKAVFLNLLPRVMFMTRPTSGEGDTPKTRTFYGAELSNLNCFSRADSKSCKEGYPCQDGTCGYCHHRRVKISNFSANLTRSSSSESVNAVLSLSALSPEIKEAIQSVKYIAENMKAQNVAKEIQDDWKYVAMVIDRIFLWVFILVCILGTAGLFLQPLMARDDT
T2 sequence (P12392 whole entry): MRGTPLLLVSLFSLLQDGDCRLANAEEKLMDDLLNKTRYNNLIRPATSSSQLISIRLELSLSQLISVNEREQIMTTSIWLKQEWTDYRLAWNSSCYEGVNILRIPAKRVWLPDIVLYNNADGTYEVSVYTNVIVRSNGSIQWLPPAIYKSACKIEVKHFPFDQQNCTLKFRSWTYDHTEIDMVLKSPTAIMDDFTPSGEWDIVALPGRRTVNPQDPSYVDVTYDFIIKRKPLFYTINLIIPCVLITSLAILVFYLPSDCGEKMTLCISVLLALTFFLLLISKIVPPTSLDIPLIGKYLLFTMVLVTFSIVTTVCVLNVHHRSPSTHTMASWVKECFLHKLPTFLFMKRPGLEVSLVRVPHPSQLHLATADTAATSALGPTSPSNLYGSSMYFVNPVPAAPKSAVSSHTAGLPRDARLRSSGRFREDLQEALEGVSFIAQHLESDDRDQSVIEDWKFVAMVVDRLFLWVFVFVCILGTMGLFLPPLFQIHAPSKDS
T2 sequence (P43143 whole entry): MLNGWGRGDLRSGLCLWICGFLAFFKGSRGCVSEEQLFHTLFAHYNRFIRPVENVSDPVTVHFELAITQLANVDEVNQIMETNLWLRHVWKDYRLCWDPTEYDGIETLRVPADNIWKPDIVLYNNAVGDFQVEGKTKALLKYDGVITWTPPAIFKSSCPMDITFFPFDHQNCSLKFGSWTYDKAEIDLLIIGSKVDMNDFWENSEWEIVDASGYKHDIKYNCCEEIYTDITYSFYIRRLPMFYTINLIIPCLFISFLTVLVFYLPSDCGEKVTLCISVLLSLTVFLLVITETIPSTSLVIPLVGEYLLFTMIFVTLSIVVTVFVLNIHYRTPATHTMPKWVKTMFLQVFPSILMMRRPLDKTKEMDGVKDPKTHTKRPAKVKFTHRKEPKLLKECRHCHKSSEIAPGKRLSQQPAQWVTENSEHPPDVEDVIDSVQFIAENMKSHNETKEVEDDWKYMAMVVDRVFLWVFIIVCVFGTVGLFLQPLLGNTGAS
T1 sequence (P04757 whole entry): as the sequence (P04757 whole entry) above
T1 sequence (P12392 whole entry): as the sequence (P12392 whole entry) above
Chain of Neuronal acetylcholine receptor; alpha3/beta2 (P04757 whole entry): as the sequence (P04757 whole entry) above
Chain of Neuronal acetylcholine receptor; alpha3/beta2 (P12390 whole entry): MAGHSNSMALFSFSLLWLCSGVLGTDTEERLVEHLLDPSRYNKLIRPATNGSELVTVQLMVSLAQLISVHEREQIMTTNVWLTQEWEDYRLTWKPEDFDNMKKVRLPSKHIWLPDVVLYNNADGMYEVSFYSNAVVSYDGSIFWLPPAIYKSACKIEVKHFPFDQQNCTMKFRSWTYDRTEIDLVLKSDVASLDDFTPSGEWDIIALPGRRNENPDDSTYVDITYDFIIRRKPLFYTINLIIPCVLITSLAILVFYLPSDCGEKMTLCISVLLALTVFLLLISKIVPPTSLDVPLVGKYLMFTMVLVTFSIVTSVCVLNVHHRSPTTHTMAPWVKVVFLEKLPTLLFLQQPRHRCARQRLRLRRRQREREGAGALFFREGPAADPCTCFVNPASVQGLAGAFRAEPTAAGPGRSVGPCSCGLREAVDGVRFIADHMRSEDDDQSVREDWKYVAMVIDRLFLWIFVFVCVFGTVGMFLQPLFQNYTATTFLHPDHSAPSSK
Chain of Neuronal acetylcholine receptor subunit alpha-7 (Q05941 whole entry): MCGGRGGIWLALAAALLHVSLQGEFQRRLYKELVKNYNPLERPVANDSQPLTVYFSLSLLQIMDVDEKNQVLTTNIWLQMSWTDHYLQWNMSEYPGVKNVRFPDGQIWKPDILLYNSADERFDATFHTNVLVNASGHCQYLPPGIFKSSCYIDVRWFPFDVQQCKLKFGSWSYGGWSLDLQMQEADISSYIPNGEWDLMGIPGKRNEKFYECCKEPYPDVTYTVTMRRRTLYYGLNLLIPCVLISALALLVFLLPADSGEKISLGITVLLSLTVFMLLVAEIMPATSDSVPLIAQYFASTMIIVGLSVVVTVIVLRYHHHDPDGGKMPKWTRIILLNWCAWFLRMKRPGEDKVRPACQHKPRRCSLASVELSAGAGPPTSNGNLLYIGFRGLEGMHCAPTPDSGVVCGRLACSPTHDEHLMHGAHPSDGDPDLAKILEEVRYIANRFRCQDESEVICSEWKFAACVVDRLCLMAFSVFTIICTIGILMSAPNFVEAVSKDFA

SMILES	IC50 [7] [nM]	IC50 [8] [nM]	also measured
CC[C@H](C)[C@@H]1NC(=O)[C@H](Cc2cnc[nH]2)NC(=O)[C@@H]2CCCN2C(=O)[C@H](C)NC(=O)[C@H](C)NC(=O)[C@H](C(C)C)NC(=O)[C@H](CC(N)=O)NC(=O)[C@@H]2CSSC[C@H](NC(=O)[C@@H](NC(=O)CN)CSSC[C@H](C(=O)O)NC1=O)C(=O)N[C@@H](CO)C(=O)N[C@@H](Cc1c[nH]cn1)C(=O)N1CCC[C@H]1C(=O)N[C@@H](C)C(=O)N2			Ratio IC50 (Rattus norvegicus [1]): 14; IC50 [2]: 370 nM; IC50 [3]: 5100 nM
CC(C)C[C@@H]1NC(=O)[C@H](C(C)C)NC(=O)[C@H](C)NC(=O)[C@@H]2CSSC[C@H](NC(=O)CN)C(=O)N[C@@H](CSSC[C@H](C(N)=O)NC(=O)[C@H](Cc3ccc(O)cc3)NC1=O)C(=O)N[C@@H](CO)C(=O)N[C@@H]([C@@H](C)O)C(=O)N1CCC[C@H]1C(=O)N1CCC[C@H]1C(=O)N2			Ratio IC50 (Rattus norvegicus [4]): 0.056; IC50 [5]: 1.54 nM; IC50 [6]: 27.7 nM
CC[C@H](C)[C@@H]1NC(=O)[C@H](Cc2cnc[nH]2)NC(=O)[C@@H]2CCCN2C(=O)[C@H](CC(N)=O)NC(=O)[C@H](CC(N)=O)NC(=O)[C@H](C(C)C)NC(=O)[C@H](CC(N)=O)NC(=O)[C@@H]2CSSC[C@H](NC(=O)[C@@H](NC(=O)CN)CSSC[C@H](C(=O)O)NC1=O)C(=O)N[C@@H](CO)C(=O)N[C@@H](Cc1c[nH]cn1)C(=O)N1CCC[C@H]1C(=O)N[C@@H](C)C(=O)N2			Ratio IC50 (Rattus norvegicus [1]): 3.1; IC50 [2]: 47.3 nM; IC50 [3]: 147 nM
CC(C)C[C@@H]1NC(=O)[C@H](C(C)C)NC(=O)[C@H](C)NC(=O)[C@@H]2CSSC[C@H](NC(=O)CN)C(=O)N[C@@H](CSSC[C@H](C(N)=O)NC(=O)[C@H](Cc3ccc(O)cc3)NC1=O)C(=O)N[C@@H](CO)C(=O)N[C@@H](C)C(=O)N[C@@H](CCCN)C(=O)N1CCC[C@H]1C(=O)N2	1200	58.1	
CC[C@H](C)[C@@H]1NC(=O)[C@@H]2CCCN2C(=O)[C@H](CO)NC(=O)[C@H](CCCSC)NC(=O)[C@H](C)NC(=O)[C@H](CO)NC(=O)[C@@H]2CSSC[C@H](NC(=O)[C@H](C)N)C(=O)N[C@@H](CSSC[C@@H](C(N)=O)NC1=O)C(=O)N[C@@H](CO)C(=O)N[C@@H](Cc1cnc[nH]1)C(=O)N1CCC[C@H]1C(=O)N[C@@H](C(C)C)C(=O)N2 (H-ACCSHPVCSA[hMet]SPIC-NH2; disulfide 2-8, 3-15)	61.9	278	
CC[C@H](C)[C@@H]1NC(=O)[C@@H]2CCCN2C(=O)[C@H](CO)NC(=O)[C@H](CCCSC)NC(=O)[C@H](C)NC(=O)[C@H](CO)NC(=O)[C@@H]2CSSC[C@H](NC(=O)CN)C(=O)N[C@@H](CSSC[C@@H](C(N)=O)NC1=O)C(=O)N[C@@H](C)C(=O)N[C@@H](Cc1cnc[nH]1)C(=O)N1CCC[C@H]1C(=O)N[C@@H](C(C)C)C(=O)N2 (H-GCCAHPVCSA[hMet]SPIC-NH2; disulfide 2-8, 3-15)	10.8	64.1	
CC[C@H](C)[C@@H]1NC(=O)[C@@H]2CCCN2C(=O)[C@H](CO)NC(=O)[C@H](CCCSC)NC(=O)[C@H](C)NC(=O)[C@H](CO)NC(=O)[C@@H]2CSSC[C@H](NC(=O)CN)C(=O)N[C@@H](CSSC[C@@H](C(N)=O)NC1=O)C(=O)N[C@@H](CO)C(=O)N[C@@H](C)C(=O)N1CCC[C@H]1C(=O)N[C@@H](C(C)C)C(=O)N2 (H-GCCSAPVCSA[hMet]SPIC-NH2; disulfide 2-8, 3-15)	> 10000	> 10000	
CC[C@H](C)[C@@H]1NC(=O)[C@@H]2CCCN2C(=O)[C@H](CO)NC(=O)[C@H](CCCSC)NC(=O)[C@H](C)NC(=O)[C@H](CO)NC(=O)[C@@H]2CSSC[C@H](NC(=O)CN)C(=O)N[C@@H](CSSC[C@@H](C(N)=O)NC1=O)C(=O)N[C@@H](CO)C(=O)N[C@@H](Cc1cnc[nH]1)C(=O)N[C@@H](C)C(=O)N[C@@H](C(C)C)C(=O)N2 (H-GCCSHAVCSA[hMet]SPIC-NH2; disulfide 2-8, 3-15)	> 10000	> 10000	
CC[C@H](C)[C@@H]1NC(=O)[C@@H]2CCCN2C(=O)[C@H](CO)NC(=O)[C@H](CCCSC)NC(=O)[C@H](C)NC(=O)[C@H](C)NC(=O)[C@@H]2CSSC[C@H](NC(=O)CN)C(=O)N[C@@H](CSSC[C@@H](C(N)=O)NC1=O)C(=O)N[C@@H](CO)C(=O)N[C@@H](Cc1cnc[nH]1)C(=O)N1CCC[C@H]1C(=O)N[C@@H](C(C)C)C(=O)N2 (H-GCCSHPVCAA[hMet]SPIC-NH2; disulfide 2-8, 3-15)			IC50 [9]: > 10000 nM; IC50 [10]: > 10000 nM; IC50 [11]: > 10000 nM; IC50 [12]: > 10000 nM; IC50 [13]: > 10000 nM; IC50 [14]: > 10000 nM; IC50 [15]: > 10000 nM
CC[C@H](C)[C@@H]1NC(=O)[C@H](C)NC(=O)[C@H](CO)NC(=O)[C@H](CCCSC)NC(=O)[C@H](C)NC(=O)[C@H](CO)NC(=O)[C@@H]2CSSC[C@H](NC(=O)CN)C(=O)N[C@@H](CSSC[C@@H](C(N)=O)NC1=O)C(=O)N[C@@H](CO)C(=O)N[C@@H](Cc1cnc[nH]1)C(=O)N1CCC[C@H]1C(=O)N[C@@H](C(C)C)C(=O)N2 (H-GCCSHPVCSA[hMet]SAIC-NH2; disulfide 2-8, 3-15)	> 10000	> 10000	
CSCCC[C@@H]1NC(=O)[C@H](C)NC(=O)[C@H](CO)NC(=O)[C@@H]2CSSC[C@H](NC(=O)CN)C(=O)N[C@@H](CSSC[C@@H](C(N)=O)NC(=O)[C@H](C)NC(=O)[C@@H]3CCCN3C(=O)[C@H](CO)NC1=O)C(=O)N[C@@H](CO)C(=O)N[C@@H](Cc1cnc[nH]1)C(=O)N1CCC[C@H]1C(=O)N[C@@H](C(C)C)C(=O)N2 (H-GCCSHPVCSA[hMet]SPAC-NH2; disulfide 2-8, 3-15)	16.1	45.8	
CSCCC[C@@H]1NC(=O)[C@H](C)NC(=O)[C@H](CO)NC(=O)[C@@H]2CSSC[C@H](NC(=O)CN)C(=O)N[C@@H](CSSC[C@@H](C(N)=O)NC(=O)[C@H](CC(=O)O)NC(=O)[C@@H]3CCCN3C(=O)[C@H](CO)NC1=O)C(=O)N[C@@H](CO)C(=O)N[C@@H](Cc1cnc[nH]1)C(=O)N1CCC[C@H]1C(=O)N[C@@H](C(C)C)C(=O)N2 (H-GCCSHPVCSA[hMet]SPDC-NH2; disulfide 2-8, 3-15)	9.2	67.4	
CSCCC[C@@H]1NC(=O)[C@H](C)NC(=O)[C@H](CO)NC(=O)[C@@H]2CSSC[C@H](NC(=O)CN)C(=O)N[C@@H](CSSC[C@@H](C(N)=O)NC(=O)[C@H](CCCNC(=N)N)NC(=O)[C@@H]3CCCN3C(=O)[C@H](CO)NC1=O)C(=O)N[C@@H](CO)C(=O)N[C@@H](Cc1cnc[nH]1)C(=O)N1CCC[C@H]1C(=O)N[C@@H](C(C)C)C(=O)N2 (H-GCCSHPVCSA[hMet]SPRC-NH2; disulfide 2-8, 3-15)	9.8	40.8	
CSCCC[C@@H]1NC(=O)[C@H](C)NC(=O)[C@H](CO)NC(=O)[C@@H]2CSSC[C@H](NC(=O)CN)C(=O)N[C@@H](CSSC[C@@H](C(N)=O)NC(=O)[C@H](Cc3ccc(O)cc3)NC(=O)[C@@H]3CCCN3C(=O)[C@H](CO)NC1=O)C(=O)N[C@@H](CO)C(=O)N[C@@H](Cc1cnc[nH]1)C(=O)N1CCC[C@H]1C(=O)N[C@@H](C(C)C)C(=O)N2 (H-GCCSHPVCSA[hMet]SPYC-NH2; disulfide 2-8, 3-15)	10	38.7	
CC[C@H](C)[C@@H]1NC(=O)[C@H](CO)NC(=O)[C@@H]2CSSC[C@H](NC(=O)CN)C(=O)N[C@@H](CSSC[C@@H](C(N)=O)NC(=O)[C@H]([C@@H](C)CC)NC(=O)[C@@H]3CCCN3C(=O)[C@H](CO)NC(=O)[C@H](CCCSC)NC1=O)C(=O)N[C@@H](CO)C(=O)N[C@@H](Cc1cnc[nH]1)C(=O)N1CCC[C@H]1C(=O)N[C@@H](C(C)C)C(=O)N2 (H-GCCSHPVCSI[hMet]SPIC-NH2; disulfide 2-8, 3-15)	74.9	50.4	
C[C@@H]1NC(=O)[C@H](Cc2ccc(O)cc2)NC(=O)[C@@H]2CSSC[C@H](NC(=O)CN)C(=O)N[C@@H](CSSC[C@@H](C(N)=O)NC(=O)[C@H](CC(=O)O)NC(=O)[C@@H]3CCCN3C(=O)[C@H](CC(N)=O)NC(=O)[C@H]([C@@H](C)O)NC1=O)C(=O)N[C@@H](CO)C(=O)N[C@@H](Cc1ccc(O)cc1)C(=O)N1CCC[C@H]1C(=O)N1CCC[C@H]1C(=O)N2 (H-GCCSYPPCYATNPDC-NH2; disulfide 2-8, 3-15)	750		
